According to patent US7122569B2, “Ethylene glycol esters as photoactive agents” (priority 1997, dated 2006):

What was measured:
[1] = test system: MHC Class II; test: Low-dose PDT, expression of cell surface antigens by peritoneal macrophages: MHC Class II; format: cell-based, murine; settings: BPD-MA 2.5 ng/ml, B-EA6 0.5 ng/ml; 690 nm LED 5 J/cm^2, 24 hr later
Description: (§1) In an additional assay to determine immunomodulation, murine peritoneal macrophages were isolated, purified and activated by recombinant interferon-γ (100 U/ml). […] Expression levels of MHC I, MHC II, CD54, CD80 and CD86 were determined 24 hr later using FITC conjugated antibodies and a cell sorter. The results are shown in Table 4 for B-EA6 at 0.5 ng/ml in comparison to similar experiments using BPD-MA at 2.5 ng/ml. The results in the table are given as a percent of expression as compared to cells treated with light only. As shown, BPD-MA and B-EA6 were both able to reduce expression of MHC II, but not the remaining surface markers. Thus, although B-EA6 has advantageous pharmacokinetics, it retains the immunomodulatory activity of BPD-MA and other compounds of this group.

[2] = test system: adjuvant-enhanced arthritis; test: Arthritis model, adjuvant-enhanced, PDT on days 0, 10, 20; format: in vivo, MRL-Ipr mice; settings: 0.5 mg/kg liposomal IV, red light 80 J/cm^2 at 1 hr
Description: MRL-Ipr mice spontaneously develop arthritis; this was enhanced by intradermal injection of Freund's Adjuvant. Various numbers of MRL-Ipr mice were treated with PDT on days 0, 10, and 20 after injection of the adjuvant. […] The mice were observed and symptoms scored every 5 days for 30 days. The results are shown in FIG. 6 in comparison to mice similarly treated with BPD-MA and BPD-MB.

[3] = test system: L1210 cells; test: Release of photosensitizer from preloaded L1210 cells; format: cell-based, murine; settings: preloaded at 3 μg/ml for 1 hr, drug-free medium with 10% fetal bovine serum; compared with BPD-MA
Description: The kinetics of release of these drugs from L1210 cells was measured by preloading the cells at 3 μg/ml for 1 hr and then placing the cells in drug-free medium containing 10% fetal bovine serum. Remaining intracellular drug content was measured at various time points by lysing the cells and measuring fluorescence.

[4] = test system: splenocytes; settings: 3 μg/ml, after an hour of incubation
Description: The ability of L1210 cells to accumulate B-EA6 was compared to the ability of splenocytes to do so. B-EA6 at 3 μg/ml was incubated with each cell type and the cell content of B-EA6 was determined by fluorescence in cell lysates.

[5] = test system: CD54 (ICAM-1); test: Low-dose PDT, expression of cell surface antigens by peritoneal macrophages: CD54; format: cell-based, murine; settings: BPD-MA 2.5 ng/ml, B-EA6 0.5 ng/ml; 690 nm LED 5 J/cm^2, 24 hr later
Description: as §1

[6] = test system: M1 (rhabdomyosarcoma) tumor; test: Tumor selectivity of PDT in mice bearing subcutaneous M1 tumor; format: in vivo, DBA/2 mice; settings: 0.75 mg/kg liposomal IV, 15 min, 50 J/cm^2 690 nm
Description: Mice were administered 0.75 mg/kg of B-EA6 in a liposomal formulation intravenously. After 15 min, a 1 cm area which included a 5 mm diameter tumor was exposed to 50 J/cm^2 of 70 mW light of 690 nm wavelength from an argon-pumped dye laser.

[7] = test system: DNFB-induced ear swelling; test: Contact hypersensitivity (CHS) assay, DNFB ear swelling; format: in vivo, Balb/C mice; settings: 1 mg/kg liposomal IV
Description: Balb/C mice (5–8 mice per group) were tested using the delayed skin photosensitivity assay also called the contact hypersensitivity (CHS) assay. The mice were painted in the flank with the sensitizing agent dinitrofluorobenzene (DNFB) and 5 days later, one ear is challenged with DNFB, while the other serves as a control. The swelling is an indicator of immune response. […] The swelling in both cases was only approximately 60% of the that shown in mice without treatment.

[8] = test system: L1210 cells; test: LD50 / photocytotoxicity on L1210 cells, 9 J/cm^2 broad spectrum light, MTT assay; format: cell-based, murine
Description: Either B-EA6 or BPD-MA was incubated for 1 hr with L1210 cells at a range of concentrations and exposed to 9 J/cm^2 broad spectrum light. This determination was made in the absence of serum and in the presence of 10% serum.
The ability of B-EA6 to exert a cytotoxic effect on L1210 cells in vitro was further tested by incubating the cells with B-EA6 at various concentrations for 1 hr in the absence of serum. After excess drug was removed, the cells were exposed to 9 J/cm^2 broad spectrum light (380–750 nm) and cell survival was determined by the MTT assay (Mosmann, T. et al. J Immunol Meth (1983) 65:55–63). The percentage of killed cells was calculated in reference to survival of cells exposed to light only.

[9] = test system: M1 rhabdomyosarcoma tumors; test: PDT bioassay in mouse tumor model, tumor-free on day 7; format: in vivo, DBA/2 mice
Description: The pharmacokinetics were also determined using an in vivo mouse tumor model. Groups of 10 DBA/2 mice containing M1 rhabdomyosarcoma tumors were injected intravenously with a liposomal formulation of BPD-MA at various dosages of 0.75–1.5 mg/kg. The tumors were irradiated with 690 nm laser light at 50 or 150 J/cm^2 at various times after injection.

[10] = test system: MHC Class I; test: Low-dose PDT, expression of cell surface antigens by peritoneal macrophages: MHC Class I; format: cell-based, murine; settings: BPD-MA 2.5 ng/ml, B-EA6 0.5 ng/ml; 690 nm LED 5 J/cm^2, 24 hr later
Description: as §1

[11] = In vivo pharmacokinetics, drug content of tissues by fluorescence in tissue extracts; design: species or system DBA/2 mice; settings: 4 mg/kg intravenous
Description: Either BPD-MA or B-EA6 was administered by intravenous injection into DBA/2 mice at a dose of 4 mg/kg using 3 mice per time point. The drug content of plasma, skin, liver and kidney was determined by fluorescence in the tissue extracts.

[12] = test system: arterioles and venules; test: Mouse cremaster muscle model, effect on microvasculature; format: in vivo; settings: 2 mg/kg IV, 25 J/cm^2 per 5 min
Description: The mouse cremaster muscle model was used. B-EA6 was administered intravenously at 2 mg/kg and starting at 5 and 15 min postinjection, surgically exposed arterioles and venules were irradiated with light at an intensity of 25 J/cm^2 per 5 min beginning at 5 min and 15 min after injection of the B-EA6. The vessels were measured as red blood column diameter as a percentage of controls.

[13] = test system: CD86 (B7-2); test: Low-dose PDT, expression of cell surface antigens by peritoneal macrophages: CD86; format: cell-based, murine; settings: BPD-MA 2.5 ng/ml, B-EA6 0.5 ng/ml; 690 nm LED 5 J/cm^2, 24 hr later
Description: as §1

[14] = test system: CD80 (B7-1); test: Low-dose PDT, expression of cell surface antigens by peritoneal macrophages: CD80; format: cell-based, murine; settings: BPD-MA 2.5 ng/ml, B-EA6 0.5 ng/ml; 690 nm LED 5 J/cm^2, 24 hr later
Description: as §1

[15] = test system: L1210 cells; test: Uptake of photosensitizer by L1210 cells (fluorescence of cell lysates); format: cell-based, murine; settings: 3 μg/ml, 10% fetal bovine serum
Description: BPD-MA or B-EA6 were incubated at 3 μg/ml in the presence of 10% fetal bovine serum with 10^7/mL of L1210 cells, a murine leukemia cell line. Intracellular content of the photosensitizers was measured by fluorescence of cell lysates at various times. […] The time course of uptake is shown in FIG. 2 as a percentage of cell content at 60 min by which time uptake had reached a maximum in both cases. As shown, B-EA6 is taken up more rapidly and reaches […] of its maximum concentration after only 5 min and reached its maximum uptake within 15 min.

Compound: C=Cc1c(C)c2cc3nc(cc4[nH]c(cc5nc(cc1[nH]2)C1(C)C5=CC=C(C(=O)OC)C1C(=O)OC)c(C)c4CCC(=O)OCCO)C(CCC(=O)OCCO)=C3C (centres unmarked) [B-EA6]
- MHC Class II expression, percent of cells treated with light only [1]: 71.8%
- prevention of arthritis symptoms (incidence of clinical symptoms, bimaleolar ankle width) [2]: effective in preventing the sequellae of adjuvant injection
- initial release from cells [3]: much more rapid
- cell content of B-EA6 accumulated [4]: less than 20 ng/10^6 cells
- CD54 (ICAM-1) expression, percent of cells treated with light only [5]: 106.9%
- effect of PDT on surrounding normal skin [6]: did not affect the surrounding normal skin
- effect of PDT on tumor [6]: effectively eliminated the tumor
- ear swelling relative to mice without treatment ([7]; 15 J/cm^2 whole body light): approximately 60%
- ear swelling relative to mice without treatment ([7]; ambient light): approximately 60%
- percentage of cells that did not survive ([8]; 15 ng/ml, no serum, 9 J/cm^2 light (380–750 nm), vs light only): ~100%
- LD50, 10% serum ([8]; L1210 cells, 1 hr incubation, 9 J/cm^2 broad spectrum light, 10% serum): 19.7 ng/mL
- percentage of killed cells ([8]; approximately 7 ng/ml, no serum, 9 J/cm^2 light (380–750 nm), vs light only): 80%
- Percent Tumor Free on Day 7 ([9]; 0.75 mg/kg liposomal IV, light 15 min post IV, 50 J/cm^2 690 nm): 50%
- Percent Tumor Free on Day 7 ([9]; 0.75 mg/kg liposomal IV, light 30 min post IV, 50 J/cm^2 690 nm): 0%
- Percent Tumor Free on Day 7 ([9]; 1.0 mg/kg liposomal IV, light 15 min post IV, 50 J/cm^2 690 nm): 90%
- Percent Tumor Free on Day 7 ([9]; 1.0 mg/kg liposomal IV, light 30 min post IV, 50 J/cm^2 690 nm): 0%
- Percent Tumor Free on Day 7 ([9]; 1.5 mg/kg liposomal IV, light 180 min post IV, 150 J/cm^2 690 nm): 0%
- MHC Class I expression, percent of cells treated with light only [10]: 100.4%
- accumulation in skin ([11]; first 3 hr): does not
- T½ (15 min-3 hours) Kidney ([11]; kidney): 48 min
- T½ (15 min-3 hours) Liver ([11]; liver): 36 min
- T½ (15 min-3 hours) Muscle ([11]; muscle): 666 min
- T½ (15 min-3 hours) Plasma ([11]; plasma): 36 min
- accumulation in plasma, liver or kidney ([11]; relative to 15 min postinjection): neither BPD-MA nor B-EA6 accumulated
- T½ (15 min-3 hours) Skin ([11]; skin): 114 min
- T½ (15 min-3 hours) Spleen ([11]; spleen): 48 min
- vessel closure ([12]; irradiation started after 15 min): permanent closure
- vessel closure ([12]; irradiation started at 5 min): transient vessel closure
- CD86 (B7-2) expression, percent of cells treated with light only [13]: 92.2%
- CD80 (B7-1) expression, percent of cells treated with light only [14]: 102.3%
- time to maximum uptake [15]: ≤ 15 min
- maximum concentration reached (intracellular content) ([15]; 10^7/mL L1210 cells): 145.9 ng/10^6 cells
